Where two headings read alike, the source gives them in different places.

Test [1] relates to NCI-H460 (lung large cell). Description: NCI-H460 cell growth inhibition (MTT). The format is cell-based, human. The note with it: Homo sapiens, NCI-H460.
The target of a further test is T1, human FPPS (Homo sapiens, UniProt P14324).
T1 construct: made in house
T1 sequence (P14324 1-419): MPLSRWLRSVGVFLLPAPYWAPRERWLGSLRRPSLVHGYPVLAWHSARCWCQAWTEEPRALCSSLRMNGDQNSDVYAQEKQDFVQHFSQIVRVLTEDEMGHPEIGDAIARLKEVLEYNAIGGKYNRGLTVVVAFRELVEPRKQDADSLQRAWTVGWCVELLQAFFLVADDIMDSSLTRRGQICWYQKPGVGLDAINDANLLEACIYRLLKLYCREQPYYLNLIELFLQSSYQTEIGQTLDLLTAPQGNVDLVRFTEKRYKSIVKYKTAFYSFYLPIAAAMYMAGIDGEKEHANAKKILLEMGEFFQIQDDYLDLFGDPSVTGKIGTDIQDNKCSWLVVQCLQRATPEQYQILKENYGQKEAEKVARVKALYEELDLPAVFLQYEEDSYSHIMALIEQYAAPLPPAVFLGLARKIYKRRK
Description: human FPPS enzyme inhibition. Type of test: biochemical. From the text: (§1) To test our polypharmaceutical hypothesis, we expressed three enzymes: human FPPS, GGPPS and DPPS, and tested each for their inhibition by a series of bisphosphonates.

In test [2] the target is T2, human recombinant geranylgeranyl diphosphate synthase (hGGPPS) (Homo sapiens, UniProt O95749).
T2 construct: made in house
T2 sequence (O95749 1-300): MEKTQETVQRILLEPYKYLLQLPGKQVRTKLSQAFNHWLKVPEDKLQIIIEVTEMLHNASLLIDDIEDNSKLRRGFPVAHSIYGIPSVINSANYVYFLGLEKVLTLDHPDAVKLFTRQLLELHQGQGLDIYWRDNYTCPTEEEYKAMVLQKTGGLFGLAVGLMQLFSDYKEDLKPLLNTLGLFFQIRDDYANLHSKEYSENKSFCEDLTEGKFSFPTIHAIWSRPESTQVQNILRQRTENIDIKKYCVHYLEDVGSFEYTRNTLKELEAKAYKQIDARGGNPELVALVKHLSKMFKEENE
Description: Human recombinant GGPPS inhibition (radiometric assay). Type of test: biochemical. The method, then:
as §1
Human recombinant GGPPS inhibition. The purification of human recombinant geranylgeranyl diphosphate synthase (hGGPPS) followed the protocol reported previously^2. GGPPS inhibition by bisphosphonates was determined using the radiometric assay reported previously^2 with slight modification. […] IPP and incubated at 37° C. for 20 min. The reaction was terminated by the addition of 75 μL of HCl/MeOH. Following a second 20 min incubation at 37° C. to effectively hydrolyze the allylic pyrophosphates, the reaction mixtures were neutralized by the addition of 75 μL of 6 N NaOH and extracted with 500 μL of hexane. 200 μL of the organic phase was transferred to a scintillation vial for counting. The IC50 values were obtained by fitting the data to the dose-response curve in Origin 6.1 (OriginLab Corp., Northampton, Mass., www.OriginLab.com).

Test [3] concerns MCF-7 (breast adenocarcinoma). Nature of the test: MCF-7 cell growth inhibition (MTT), incl. FOH/GGOH rescue. Type of test: cell-based, human. The settings on record: for IC50: Homo sapiens, MCF7.
Another test concerns Vγ2Vδ2 T cells. Nature of the test: γδ T cell activation (TNF-α release and proliferation). Type of test: cell-based, human. The gist of the method: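 Vγ2Vδ2 T cell clones (CD4+ JN.24, CD4+ HF.2, CD8αα+ 12G12, CD4−8− HD.108) stimulated with phosphoantigens plus 0.05% glutaraldehyde-fixed APCs: CP.EBV B cells for CD4+ clones, Va-2 fibroblasts for others. TNF-α release and proliferation measured; curve minima from global fitting per experiment, maxima fitted per compound unconstrained.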

The target in another test is T3, human DPPS (Homo sapiens, UniProt Q5T2R2).
T3 construct: made in house
T3 sequence (Q5T2R2 1-415): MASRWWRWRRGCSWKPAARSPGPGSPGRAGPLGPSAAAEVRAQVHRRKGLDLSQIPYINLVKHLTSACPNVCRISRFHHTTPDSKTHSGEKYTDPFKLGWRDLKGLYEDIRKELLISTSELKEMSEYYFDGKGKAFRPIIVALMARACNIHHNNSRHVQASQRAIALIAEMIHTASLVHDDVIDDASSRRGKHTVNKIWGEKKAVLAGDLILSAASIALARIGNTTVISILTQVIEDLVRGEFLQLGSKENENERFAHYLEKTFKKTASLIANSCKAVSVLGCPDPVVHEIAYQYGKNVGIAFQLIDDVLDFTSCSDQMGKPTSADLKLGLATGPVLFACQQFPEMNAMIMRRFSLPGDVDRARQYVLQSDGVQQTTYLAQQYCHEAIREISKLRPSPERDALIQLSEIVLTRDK
T3 sequence (Q86YH6 1-399 partner): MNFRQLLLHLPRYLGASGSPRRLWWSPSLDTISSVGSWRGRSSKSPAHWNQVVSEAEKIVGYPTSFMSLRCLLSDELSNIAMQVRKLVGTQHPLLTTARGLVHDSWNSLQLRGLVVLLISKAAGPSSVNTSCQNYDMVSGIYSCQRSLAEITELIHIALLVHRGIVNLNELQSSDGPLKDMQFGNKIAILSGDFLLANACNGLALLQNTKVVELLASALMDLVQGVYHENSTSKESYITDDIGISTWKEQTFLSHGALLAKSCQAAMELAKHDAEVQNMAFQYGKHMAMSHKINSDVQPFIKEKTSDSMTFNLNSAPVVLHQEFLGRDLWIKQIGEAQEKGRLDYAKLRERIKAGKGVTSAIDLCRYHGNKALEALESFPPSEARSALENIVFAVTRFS
Nature of the test: human DPPS enzyme inhibition. The format is biochemical.
From the text: as §1

For the molecule `CCCCCCCCCCOc1cccc(CC(O)(P(=O)(O)O)P(=O)(O)O)c1` [BPH-754], the IC50 in test [1] (Table 1, experimental, read-out: NCI-H460 pIC50 (converted)) was 20000 nM; in test [1] (read-out: IC50, inhibition of human lung cancer NCIH460), 672 nM; in test [3] (Table 1, experimental, read-out: MCF-7 pIC50 (converted)), 25100 nM; in test [3] (read-out: IC50, inhibition of human breast cancer cell line MCF7), 401 nM. Besides, at human FPPS, the “effect on FPPS” value is “essentially no effect”. Also, the Ki at human FPPS (Table 1, experimental, read-out: FPPS pKi (converted)) was 5010 nM; in test [2] (Table 1, experimental, read-out: GGPPS pKi (converted)), 15.8 nM; at human DPPS (Table 1, experimental, read-out: DPPS_pKi (converted)), 200 nM. Moreover, in test [2], the “effect on GGPPS” value is recorded as “good GGPPS inhibitor”. The “rescue from growth inhibition by geranylgeraniol (GGOH)” value in test [3] (GGOH 20 μM) is reported as “rescued by GGOH”. The “γδ T cell activation” value with Vγ2Vδ2 T cells is “no effect”. Further, at human DPPS, the “effect on DPPS” value is on record as “essentially no effect”.
